Laboratory results: article PMC7796460, “Relation of Metal-Binding Property and Selective Toxicity of 8-Hydroxyquinoline Derived Mannich Bases Targeting Multidrug Resistant Cancer Cells” (Cancers, 2021)
Like-named read-outs stand apart in the source and are kept apart here.

Legend:
[1] = test system: MES-SA cells; assay: MTT viability assay, MES-SA; type: cell-based, human; settings: for IC50: Homo sapiens, MES-SA; for Effect of co-administration of CuCl2 on toxicity: parental MES-SA, increasing concentrations of CuCl2, MTT 72 h (Figure 2I-L)
Procedure, shortened: (§1)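 Absorbance at 540 nm of DMSO-dissolved formazan gave viability after cells were treated with compounds for 72 h and then given MTT (0.083 mg/mL) for 1 h. Values were normalized to untreated controls and fitted with a sigmoidal dose-response model.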

[2] = test system: MES-SA/Dx5 cells; assay: MTT viability assay, MES-SA/Dx5; type: cell-based, human; settings: for IC50: Homo sapiens, MES-SA/Dx5, Table S1, calculated as ligand equivalents, read-out: IC50 Dx5; for IC50 / SR: absence of TQ; for Effect of co-administration of CuCl2 on toxicity: MDR MES-SA/Dx5, increasing concentrations of CuCl2, MTT 72 h (Figure 2I-L); for Selective toxicity in the presence of 50 µM copper(II): MES-SA vs. MES-SA/Dx5, 50 µM copper(II); for MDR-selective toxicity with excess iron ions: MES-SA vs. MES-SA/Dx5, co-administered FeCl3; for Effect of co-incubation with iron(III) on cytotoxicity: MES-SA/Dx5, increasing concentrations of FeCl3, MTT 72 h (Figure 2A-D); for SR: Table S1, IC50 Pgp negative divided by Pgp positive cells; for SR_TQ: Table S1, presence of 1 µM TQ
Procedure, shortened: as §1

[3] = test system: MES-SA/B1 cells; assay: MTT viability assay, MES-SA/B1; type: cell-based, human; settings: for IC50: Homo sapiens, MES-SA, 72 h, MTT 72 h
Text: (§2) MDCK II canine kidney cells, A431 epidermoid carcinoma cells, the human uterine sarcoma cell lines MES-SA and the doxorubicin selected MES-SA-Dx5 were obtained from ATCC (MDCK II: No. CRL-2936™, A431: No. CRL-1555™, MES-SA: No. CRL-1976™, MES-SA/Dx5: No. CRL-1977™). ABCB1 was expressed in A431 and MES-SA cells using lentiviral transduction. The human cervix carcinoma cell line KB-3-1 and the vinblastine selected KB-v1were kind gifts from Dr. Michael M. Gottesman, National Institutes of Health. The phenotype of the resistant cells was verified using cytotoxicity assays. MDCK-B1 and MDCK-MM were established by the Sleeping Beauty transposon-based gene delivery system. OVCAR-8 and NCI-ADRres cells (obtained from the Division of Cancer Treatment and Diagnosis (DCTD) Tumor Repository (National Cancer Institute, Frederick, MD, USA)) were cultivated in RPMI-1640 (Sigma Aldrich, Budapest, Hungary), and other cell lines were cultivated in Dulbecco’s Modified Eagle Medium (DMEM, Sigma Aldrich, Budapest, Hungary), supplemented with 10% fetal bovine serum, 5 mM glutamine, and 50 unit/mL penicillin and streptomycin (Life Technologies, Carlsbad, CA, USA). All cell lines were cultivated at 37 °C, 5% CO2.
(§3) MTT viability assays were performed as described earlier with minor modifications. Briefly, cells were seeded into 96-well tissue culture plates (Sarstedt, Newton, NC, USA/Orange, Braine-l’Alleud, Belgium) at a density of 5000 cells/well and allowed to attach overnight. Test compounds were added to achieve the required final concentration in a final volume of 100 µL per well. After an incubation period of 72 h, the supernatant was removed and fresh medium containing the MTT reagent (0.083 mg/mL) was added. Incubation with MTT at 37 °C was terminated after 1 h by removing the supernatant and lysing the cells with 100 µL DMSO per well. Viability of the cells was measured spectrophotometrically based on the absorbance values at 540 nm using either a Perkin Elmer Victor X3 or an EnSpire microplate reader. Data were background corrected by subtraction of the signal obtained from unstained cell lysates and normalized to untreated cells. Curves were fitted by Prism software (GraphPad Software Inc., San Diego, CA, USA) using the sigmoidal dose-response model (comparing variable and fixed slopes). […] Significance was calculated using unpaired t-tests; results are given as *: p ≤ 0.05, **: p ≤ 0.01, ***: p ≤ 0.001, ****: p ≤ 0.0001.

[4] = test system: OVCAR-8 cells; assay: MTT viability assay, OVCAR-8; type: cell-based; settings: Homo sapiens, OVCAR-8, 72 h, MTT 72 h
Text: as §2, §3

[5] = test system: NCI-ADRres cells; assay: MTT viability assay, NCI-ADRres; type: cell-based; settings: for IC50: Homo sapiens, NCI/ADR-RES, 72 h, MTT 72 h; for SR NCI-ADRres: IC50 OVCAR-8 vs. NCI-ADRres
Text: as §2, §3

[6] = test system: KB-3-1 cells; assay: MTT viability assay, KB-3-1; type: cell-based; settings: Homo sapiens, KB 3-1, 72 h, MTT 72 h
Text: as §2, §3

[7] = test system: A431-B1 cells; assay: MTT viability assay, A431-B1; type: cell-based; settings: for IC50: 72 h, MTT 72 h
Text: as §2, §3

[8] = test system: MDCK cells; assay: MTT viability assay, MDCK; type: cell-based, canine; settings: Canis lupus familiaris, 72 h, MTT 72 h
Text: as §2, §3

[9] = test system: MDCK-B1 cells; assay: MTT viability assay, MDCK-B1 (wild-type Pgp); type: cell-based, canine; settings: for IC50: Canis lupus familiaris, 72 h, MTT 72 h
Text: as §2, §3

[10] = test system: MDCK-MM cells; assay: MTT viability assay, MDCK-MM (non-functional Pgp); type: cell-based, canine; settings: for IC50: Canis lupus familiaris, 72 h, MTT 72 h; for SR MDCK-MM: IC50 MDCK vs. MDCK-MM
Text: as §2, §3

[11] = test system: MES-SA cells; assay: ROS determination with DCFDA, MES-SA; type: cell-based, human; settings: 2 h
Procedure, shortened: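 Cells loaded with 10 µM DCFDA (3 × 10^6 cells/mL, 37 °C, 30 min), washed, then plated at 2 × 10^4 cells/well in PBS. After basal reading, compounds (6.25–50 µM) added and fluorescence followed every 10 min to 2 h, also with 5 mM NAC; values as fold change versus basal and untreated cells.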

[12] = MTT 72 h, absence of Tariquidar, read-out: IC50 MES-SA
[13] = Table 2, value outside brackets, read-out: MES-SA (toxicity, Table 2)
[14] = IC50 MES-SA vs. MES-SA/Dx5, absence of Tariquidar
[15] = IC50 MES-SA vs. MES-SA/Dx5, presence of 1 µM Tariquidar (brackets)
[16] = Table 2, value in brackets (Tariquidar as in Table 1)
[17] = Table 2, value outside brackets
[18] = presence of 1 µM Tariquidar (values in brackets)
[19] = IC50 MES-SA vs. MES-SA/B1, absence of Tariquidar
[20] = IC50 MES-SA vs. MES-SA/B1, presence of 1 µM Tariquidar (brackets)
[21] = IC50 MDCK vs. MDCK-B1, absence of Tariquidar
[22] = IC50 MDCK vs. MDCK-B1, presence of 1 µM Tariquidar (brackets)
[23] = presence of 1 µM Tariquidar (brackets)
[24] = 6.25 µM, presence of 5 mM NAC (brackets)
[25] = 12.5 µM, presence of 5 mM NAC (brackets)
[26] = 25 µM, presence of 5 mM NAC (brackets)
[27] = 50 µM, presence of 5 mM NAC (brackets)

## Oc1c(CNCc2ccccc2F)cc(Cl)c2cccnc12 [Compound Q-4, 5-chloro-7-((2-fluorobenzylamino)methyl)quinolin-8-ol]
[1]; [12]
  IC50: 2.75 ± 0.46 µM
[1]; [13]
  IC50: 2.75 ± 0.46 µM
[1]
  Effect of co-administration of CuCl2 on toxicity: selective increase in sensitivity
[2]
  IC50: 0.2 ± 0.06 µM
  Effect of co-administration of CuCl2 on toxicity: not further sensitized
  Selective toxicity in the presence of 50 µM copper(II): completely abrogated
  MDR-selective toxicity with excess iron ions: significantly reduced
  Effect of co-incubation with iron(III) on cytotoxicity: selectively protected MES-SA/Dx5 cells
  SR: 13.68
  SR_TQ: 0.68
[2]; [14]
  SR MES-SA/Dx5: 13.68
[2]; [15]
  SR MES-SA/Dx5: 0.68
[2]; [16]
  SR MES-SA/Dx5 (Table 2): 0.68
[2]; [17]
  SR MES-SA/Dx5 (Table 2): 13.68
[3]; absence of Tariquidar
  IC50: 0.3 ± 0.06 µM
[3]; [18]
  IC50: 1.03 µM
[3]; [19]
  SR MES-SA/B1: 9.24
[3]; [20]
  SR MES-SA/B1: 2.16
[4]; absence of Tariquidar
  IC50: 1.08 ± 0.1 µM
[4]; [18]
  IC50: 1.09 µM
[5]; absence of Tariquidar
  IC50: 0.14 ± 0.07 µM
  SR NCI-ADRres: 7.84
[5]; [18]
  IC50: 1.15 µM
[6]; absence of Tariquidar
  IC50: 1.75 ± 0.62 µM
[6]; [18]
  IC50: 2.65 µM
[7]; absence of Tariquidar
  IC50: 2.57 ± 0.56 µM
[7]; [18]
  IC50: 7.95 µM
[8]; absence of Tariquidar
  IC50: 4.55 ± 1.53 µM
[8]; [18]
  IC50: 5.92 µM
[9]; absence of Tariquidar
  IC50: 0.89 ± 0.35 µM
[9]; [18]
  IC50: 6.95 µM
[9]; [21]
  SR MDCK-B1: 5.13
[9]; [22]
  SR MDCK-B1: 0.85
[10]; absence of Tariquidar
  IC50: 5.23 ± 2.11 µM
  SR MDCK-MM: 0.87
[10]; [18]
  IC50: 6.27 µM
[10]; [23]
  SR MDCK-MM: 0.94
[11]; 6.25 µM
  Fold change in fluorescence (DCFDA): 1.207± 0.20
[11]; [24]
  Fold change in fluorescence (DCFDA): 1.030± 0.16
[11]; 12.5 µM
  Fold change in fluorescence (DCFDA): 1.190± 0.14
[11]; [25]
  Fold change in fluorescence (DCFDA): 1.033± 0.21
[11]; 25 µM
  Fold change in fluorescence (DCFDA): 1.187± 0.29
[11]; [26]
  Fold change in fluorescence (DCFDA): 0.985± 0.12
[11]; 50 µM
  Fold change in fluorescence (DCFDA): 1.151± 0.19
[11]; [27]
  Fold change in fluorescence (DCFDA): 1.040± 0.17

## Oc1c(CN2CCCCC2)ccc2cccnc12 [Compound Q-3, 7-(piperidin-1-ylmethyl)quinolin-8-ol]
[1]; [12]
  IC50: 4.11 ± 1.2 µM
[1]; [13]
  IC50: 4.11 ± 1.2 µM
[1]
  Effect of co-administration of CuCl2 on toxicity: selective increase in sensitivity
[2]
  IC50: 0.86 ± 0.26 µM
  Effect of co-administration of CuCl2 on toxicity: not further sensitized
  Selective toxicity in the presence of 50 µM copper(II): completely abrogated
  MDR-selective toxicity with excess iron ions: significantly reduced
  Effect of co-incubation with iron(III) on cytotoxicity: selectively protected MES-SA/Dx5 cells
  SR: 4.75
  SR_TQ: 0.95
[2]; [14]
  SR MES-SA/Dx5: 4.75
[2]; [15]
  SR MES-SA/Dx5: 0.95
[2]; [16]
  SR MES-SA/Dx5 (Table 2): 0.95
[2]; [17]
  SR MES-SA/Dx5 (Table 2): 4.75
[3]; absence of Tariquidar
  IC50: 0.83 ± 0.02 µM
[3]; [18]
  IC50: 1.5 µM
[3]; [19]
  SR MES-SA/B1: 4.95
[3]; [20]
  SR MES-SA/B1: 1.99
[4]; absence of Tariquidar
  IC50: 3.15 ± 0.36 µM
[4]; [18]
  IC50: 3.72 µM
[5]; absence of Tariquidar
  IC50: 0.68 ± 0.09 µM
  SR NCI-ADRres: 4.60
[5]; [18]
  IC50: 4.22 µM
[5]; [23]
  SR NCI-ADRres: 0.88
[6]; absence of Tariquidar
  IC50: 6.19 ± 0.12 µM
[6]; [18]
  IC50: 6.69 µM
[7]; absence of Tariquidar
  IC50: 1.14 ± 0.16 µM
[7]; [18]
  IC50: 5.58 µM
[7]; IC50 A431 vs. A431-B1, absence of Tariquidar
  SR A431-B1: 3.96
[7]; IC50 A431 vs. A431-B1, presence of 1 µM Tariquidar (brackets)
  SR A431-B1: 0.73
[8]; absence of Tariquidar
  IC50: 7.61 ± 3.06 µM
[8]; [18]
  IC50: 10.2 µM
[9]; absence of Tariquidar
  IC50: 3.22 ± 1.02 µM
[9]; [18]
  IC50: 12.4 µM
[9]; [21]
  SR MDCK-B1: 2.36
[9]; [22]
  SR MDCK-B1: 0.82
[10]; absence of Tariquidar
  IC50: 6.67 ± 2 µM
  SR MDCK-MM: 1.14
[10]; [18]
  IC50: 8.45 µM
[10]; [23]
  SR MDCK-MM: 1.20
[11]; 6.25 µM
  Fold change in fluorescence (DCFDA): 1.288± 0.24
[11]; [24]
  Fold change in fluorescence (DCFDA): 1.097± 0.11
[11]; 12.5 µM
  Fold change in fluorescence (DCFDA): 1.372± 0.22
[11]; [25]
  Fold change in fluorescence (DCFDA): 1.080± 0.27
[11]; 25 µM
  Fold change in fluorescence (DCFDA): 1.464± 0.39
[11]; [26]
  Fold change in fluorescence (DCFDA): 1.119± 0.24
[11]; 50 µM
  Fold change in fluorescence (DCFDA): 1.753± 0.37
[11]; [27]
  Fold change in fluorescence (DCFDA): 1.054± 0.25
